From patent publication US11338040B2, “Immunomodulatory compounds” (Leidos, Inc., priority 2020, dated 2022)
“Also recorded” adds a separate entry of the source. Non-standard residues stand in square brackets, D forms with d. Residues, ends and D or L forms follow the SMILES beside them. Primed or numbered codes have the meaning given here. No end group written: not given here. PEG4′ = PEG linker of 4 PEG units; PEG4 = NCCOCCOCCOCCOCCC(=O)O

Legend:
PD1 = biological target: T1, PD1 (Homo sapiens, UniProt Q15116); test: PD1/PDL1 cell reporter assay (PathHunter, Jurkat PD1/SHP1 EFC cells co-incubated with PDL1-presenting U2OS cells); type: cell-based; conditions: FIG. 10
T1 construct: expressed in transfected cells; host or cells: Jurkat cells (PD1-EFC and SHP1-EFC) co-cultured with PDL1-presenting U2OS cells
Description: Jurkat cells expressing PD1 and SHP1 proteins, each fused to a fragment of enzyme fragment complementation (EFC) system, were co-incubated with PDL1-presenting U2OS cells. […] Cells in co-culture were incubated at room temperature (RT) for 2 h (PD1 assay). The assay signal was generated using the PathHunter Bioassay Detection kit. Microplates were read following signal generation using a PerkinElmer ENVISION™ instrument for chemiluminescent signal detection. Inhibitory peptides or antibodies added to the culture result in reduction of light signal. The degree of inhibition was calculated using the following formula: Percent inhibition=100%×[1−(mean RLU of test sample−mean RLU of vehicle control)/mean RLU of EC80 control−mean RLU of vehicle control)].
Peptide conjugates BT1-BT11 were tested at three concentrations: 3.6 μM, 10.8 μM, 32.5 μM in triplicate wells. peptide conjugates were dissolved in DMSO and serially diluted in assay buffer. The highest concentration that can be tested in this assay was 32.5 μM peptide conjugate (1% DMSO).
Peptides LD12 (SEQ ID NO:9), LD10 (SEQ ID NO:1), and LD16 (SEQ ID NO:10) were tested at three concentrations: 11 μM, 33 μM, 100 μM in triplicate. LD peptides were dissolved in water and serially diluted in assay buffer. RLUs were measured at the end of the assay, and % Inhibition (% Efficiency) was calculated using the formula above.

[1] = biological target: T2, interaction between LAG3 and MHC-II (Homo sapiens, UniProt P18627); test: HTRF (TR-FRET) LAG3/MHC-II binding assay; conditions: for response in dilution curve (HTRF signal): 10-fold dilutions starting at 100 μM or 10 μM, FIGS. 2A-9B; for IC50: LAG3:MHCII TR-FRET full dilution curves; for effect on HTRF signal: tested at 100 μM, 10 μM, and 1 μM, FIG. 1
T2 construct: purchased Cisbio US Inc
T2 sequence (P18627 23-450 limits assumed): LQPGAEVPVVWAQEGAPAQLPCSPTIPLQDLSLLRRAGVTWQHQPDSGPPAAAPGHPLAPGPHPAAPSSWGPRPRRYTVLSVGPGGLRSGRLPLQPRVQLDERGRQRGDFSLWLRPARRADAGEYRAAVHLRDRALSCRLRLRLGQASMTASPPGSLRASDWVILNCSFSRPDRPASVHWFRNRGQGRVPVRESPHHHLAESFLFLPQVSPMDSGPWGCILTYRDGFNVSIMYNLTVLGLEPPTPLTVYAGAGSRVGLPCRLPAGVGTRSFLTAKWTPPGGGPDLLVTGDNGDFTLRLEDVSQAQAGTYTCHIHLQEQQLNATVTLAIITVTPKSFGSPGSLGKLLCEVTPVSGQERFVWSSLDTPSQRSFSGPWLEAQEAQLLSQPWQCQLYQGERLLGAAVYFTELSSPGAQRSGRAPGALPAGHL
Source text: A Homogeneous Time-resolved Fluorescence (HTRF) LAG3/MHC-II binding assay (Cisbio US Inc.) was used to measure the interaction between MHC-II and LAG3 in the presence of various peptides and peptide conjugates. In this assay, the interaction between Tag1-LAG3 and Tag2-MHC-II is detected by using anti-Tag1-Terbium (HTRF donor) and anti-Tag2-XL665 (HTRF acceptor). When the donor and acceptor antibodies are brought into close proximity due to LAG3 and MHC-II binding, excitation of the donor antibody triggers fluorescent resonance energy transfer (FRET) towards the acceptor antibody, which in turn emits specifically at 665 nm. This specific signal is directly proportional to the extent of LAG3/MHC-II interaction. Thus, an agent that blocks the interaction between LAG3 and MHC-II will cause a reduction in HTRF ratio.
Each of peptide conjugates BT1, BT2, BT3, BT4, BT5, BT6, BT7, BT8, BT9, and peptides LG11 (LAG3-11), LAG3-56 (SEQ ID NO:5), and LAG3-42 (SEQ ID NO:6) was tested at 3 concentrations: 100 μM, 10 μM, and 1 μM. The dashed-lines represent the HTRF ratio readout of a control ovalbumin peptide (OVA, SEQ ID NO:7) (baseline) at the respective concentrations.
peptide conjugates and LG peptides were tested in full dilution curves in the LAG3:MHCII TR-FRET Assay described above to estimate IC50. peptide conjugates were tested starting at 100 μM or 10 μM. LG peptides were tested starting at 100 μM.

[2] = peptide conjugates at 3.6 μM, 10.8 μM, 32.5 μM in triplicate
[3] = LD peptides at 11 μM, 33 μM, 100 μM in triplicate

T1 sequence (Q15116 25-288): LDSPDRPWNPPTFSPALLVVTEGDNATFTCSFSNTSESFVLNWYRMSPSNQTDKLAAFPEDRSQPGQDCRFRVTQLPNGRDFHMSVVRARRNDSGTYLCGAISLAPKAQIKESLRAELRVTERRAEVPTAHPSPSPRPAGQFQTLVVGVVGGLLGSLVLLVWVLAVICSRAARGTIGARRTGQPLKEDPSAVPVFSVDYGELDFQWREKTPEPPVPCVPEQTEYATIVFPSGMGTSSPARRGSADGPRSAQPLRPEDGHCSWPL

Compound	inhibition of PD1 activity (percent inhibition of light signal) (PD1; [2])	response in dilution curve (HTRF signal) [1]	effect on HTRF signal [1]	further results
CC[C@H](C)[C@H](NC(=O)[C@H](CO)NC(=O)[C@@H](NC(=O)[C@H](CC(C)C)NC(=O)[C@H](CCCNC(=N)N)NC(=O)[C@@H](NC(=O)[C@H](CC(N)=O)NC(=O)[C@@H](NC(=O)[C@@H](NC(=O)[C@H](C)NC(=O)[C@@H]1CCCN1C(=O)[C@H](CC(C)C)NC(=O)[C@H](CO)NC(=O)[C@H](CCC(N)=O)NC(C)=O)[C@@H](C)O)[C@@H](C)CC)C(C)C)[C@@H](C)O)C(=O)N[C@@H](CCC(N)=O)C(=O)NCC(=O)N[C@H](C(=O)N[C@H](CO)C(=O)NCCOCCOCCOCCOCCC(=O)N[C@@H](CO)C(=O)N[C@@H](C)C(=O)N1CCC[C@H]1C(=O)N[C@@H](Cc1c[nH]c2ccccc12)C(=O)N[C@@H](CCC(=O)O)C(=O)N1CCC[C@H]1C(=O)N[C@@H](CC(C)C)C(=O)N[C@@H](Cc1c[nH]cn1)C(=O)N[C@@H](Cc1c[nH]c2ccccc12)C(=O)N1CCC[C@H]1C(=O)N[C@@H](CCC(=O)O)C(=O)N[C@@H](CC(=O)O)C(=O)N[C@@H](Cc1c[nH]c2ccccc12)C(=O)N[C@@H](Cc1c[nH]c2ccccc12)C(=O)N[C@@H](CCC(N)=O)C(=O)NCC(=O)N[C@H](C(=O)NCC(=O)N[C@@H](CCC(=O)O)C(=O)N[C@@H](Cc1c[nH]c2ccccc12)C(N)=O)[C@@H](C)O)[C@@H](C)O [BT7] (Ac-QSLPATINVRLTSIQGT[dS][PEG4]SAPWEPLHWPEDWWQGTGEW-NH2)	reduced the activity of PD1 at one or two of the tested concentrations	reduced the HTRF signal	reduced the HTRF signal	IC50 [1]: ~12.8 nM
LD12: negative control peptide LD12 (SEQ ID NO:9) (CRRTSTGQISTARVNITAPLSQ; LD12 peptide) [reference compound]	–	–	–	inhibition of PD1 activity (percent inhibition of light signal) (PD1; [3]): did not show inhibition
H2N-WEGTGQWWDEPWHLPEWPAS^4-PEG4-(dS)TGQISTLRVNITAPLSQ^1-amide [BT3]	did not show inhibition at any of the tested concentrations	agonistic activity at 100 μM and 10 μM	–	–
H2N-(dS)TGQISTLRVNITAPLSQ^1-PEG4-WEGTGQWWDEPWHLPEWPAS^4-amide [BT8]	did not show inhibition at any of the tested concentrations	agonistic activity at 100 μM	two concentrations of BT8 reduced the HTRF signal	–
LD16: positive control peptide LD16 (SEQ ID NO:10) (TSTGQISTLRVNITAPLSQ; LD16 peptide) [reference compound]	–	–	–	inhibition of PD1 activity (percent inhibition of light signal) (PD1; [3]): Good dose-responses
LD10da: peptide LD10da (SEQ ID NO:8) (STGQISTLRVNITAPLSQ; LD10da peptide) [reference compound]	–	no response	–	–
H2N-(dS)TGQISTLRVNITAPLSQ^1-PEG4-QSLPATINVRLTSIQGT(dS)^2-amide [BT10]	reduced the activity of PD1 at one or two of the tested concentrations	activity at 100 μM	–	response in dilution curve (HTRF signal) ([1]; listed as B10): no or activity only at 100 μM
H2N-(dS)TGQISTLRVNITAPLSQ^1-PEG4-(dS)TGQISTLRVNITAPLSQ^1-amide (peptide 1 H-[dS]TGQISTLRVNITAPLSQ[PEG4′]; peptide 2 [dS]TGQISTLRVNITAPLSQ-NH2; also: chain 1 C-terminus joined to chain 2 N-terminus via PEG4) [BT9, peptide conjugate of two LD10 peptides (forward, forward) separated by a PEG4 linker]	reduced the activity of PD1 at one or two of the tested concentrations	no real effect; also recorded: no or activity only at 100 μM	behaved in this assay like a LAG3 agonist	–
Ac-QSLPATINVRLTSIQGT(dS)^2-PEG4-QSLPATINVRLTSIQGT(dS)^2-amide (peptide 1 Ac-QSLPATINVRLTSIQGT[dS][PEG4′]; peptide 2 QSLPATINVRLTSIQGT[dS]-NH2; also: chain 1 C-terminus joined to chain 2 N-terminus via PEG4) [BT11, peptide conjugate of two LD10 peptides (reverse, reverse) separated by a PEG4 linker]	reduced the activity of PD1 at one or two of the tested concentrations	activity at 100 μM	–	response in dilution curve (HTRF signal) ([1]; listed as B11): no or activity only at 100 μM
CC[C@H](C)[C@H](NC(=O)[C@H](CO)NC(=O)[C@@H](NC(=O)[C@H](CC(C)C)NC(=O)[C@H](CCCNC(=N)N)NC(=O)[C@@H](NC(=O)[C@H](CC(N)=O)NC(=O)[C@@H](NC(=O)[C@@H](NC(=O)[C@H](C)NC(=O)[C@@H]1CCCN1C(=O)[C@H](CC(C)C)NC(=O)[C@H](CO)NC(=O)[C@H](CCC(N)=O)NC(C)=O)[C@@H](C)O)[C@@H](C)CC)C(C)C)[C@@H](C)O)C(=O)N[C@@H](CCC(N)=O)C(=O)NCC(=O)N[C@H](C(=O)N[C@H](CO)C(=O)NCCOCCOCCOCCOCCC(=O)N[C@@H](Cc1c[nH]c2ccccc12)C(=O)N[C@@H](CCC(=O)O)C(=O)NCC(=O)N[C@H](C(=O)NCC(=O)N[C@@H](CCC(N)=O)C(=O)N[C@@H](Cc1c[nH]c2ccccc12)C(=O)N[C@@H](Cc1c[nH]c2ccccc12)C(=O)N[C@@H](CC(=O)O)C(=O)N[C@@H](CCC(=O)O)C(=O)N1CCC[C@H]1C(=O)N[C@@H](Cc1c[nH]c2ccccc12)C(=O)N[C@@H](Cc1c[nH]cn1)C(=O)N[C@@H](CC(C)C)C(=O)N1CCC[C@H]1C(=O)N[C@@H](CCC(=O)O)C(=O)N[C@@H](Cc1c[nH]c2ccccc12)C(=O)N1CCC[C@H]1C(=O)N[C@@H](C)C(=O)N[C@@H](CO)C(N)=O)[C@@H](C)O)[C@@H](C)O [BT6] (Ac-QSLPATINVRLTSIQGT[dS][PEG4]WEGTGQWWDEPWHLPEWPAS-NH2)	did not show inhibition at any of the tested concentrations	reduced the HTRF signal	reduced the HTRF signal	IC50 [1]: 146 nM
LG42: peptide LG42 (LAG3-42; SEQ ID NO:6) (DWNFQQWDWKKHNHLDSHVV; LAG3-42 peptide) [reference compound]	–	no response	–	–
STGQISTLRVNITAPLSQ (LD10 peptide, forward orientation) [positive control peptide]	–	–	–	inhibition of PD1 activity (percent inhibition of light signal) (PD1; [3]): Good dose-responses
